Data published in patent US5070078A, “Antiviral compounds” (Burroughs Wellcome Co., priority 1987, dated 1991).

Assays:
adenovirus serotype 5 = experiment: anti-adenovirus activity against serotype 5 (statement only); assay type: cell-based
adenovirus of serotype 8 = experiment: anti-adenoviral activity, plaque assay in human epithelial cell line NCTC 2544 (EP); assay type: cell-based, adenovirus type 8
Method: The anti-adenoviral activity of Compound No. 1 referred to above was tested as follows:
(§1) Cells of human epithelial cell line NCTC 2544 (EP) were serially passaged from 75 cm^2 tissue culture flasks (Corning) at a spilt ratio of 1/20 every 7 days. The growth medium was Eagles BHK medium supplemented with 10% foetal bovine serum and contained 2.5% of 4.4% sodium bicarbonate solution together with 1% of penicillin (5000 IU ml^-1) and streptomycin (600 μg ml^-1) (Flow).
A stock of adenovirus of type 8 was prepared in 25 cm^2 tissue culture flasks. Flasks were seeded with 2×10^6 EP cells in growth medium and incubated overnight at 37° C. The medium was decanted and 1.0 ml of stock virus suspension was added to the flask. After 1.0 hr adsorption 10 ml of maintenance medium (as above but with 2% serum) was added to the flask.
The flask were incubated at 37° C. After 72 hrs the classical'bunch of grapes' cytopathic effect was visible. The flasks were then frozen and thawed 3 times to liberate the virus and stored at -70° C. Viral titres were usually of the order of 4×10^8 pfu ml^-1.
The plaque assay was performed in 50 mm diameter plastic tissue culture dishes which were initially seeded with 2×10^6 EP cells in growth medium and incubated overnight in 5% CO2 at 37° C. […]

[1] = Cytotoxicity Determination, trypan blue exclusion method; assay type: cell-based; details: human, NCTC 2544 cells, read-out: 50% cell culture inhibitory concentration
Method: as §1
Cytotoxicity was determined by means of the trypan blue exclusion method. NCTC 2544 cells were prepared in growth medium and aliquots added to […] tissue culture flasks at approximately 1×10^5 cells/ml. At 24 hours the flasks were divided and replenished with growth medium. One half of the flasks received growth medium containing 10 fold dilutions of compound thus exposing the cells to 1, 10, and 100 μM concentrations. At 24, 48, and 72 hours representative flasks were removed from the incubator and the monolayers washed to remove debris. The cells were resuspended in growth medium and aliquots mixed with an equal volume of trypan blue. Stained and unstained cells were counted in a haemocytometer. Cell counts were adjusted to cells/ml. An estimate of the growth and viability of treated and untreated cells was then made.

Cc1cn([C@H]2C[C@H](F)[C@@H](CO)O2)c(=O)[nH]c1=O [Compound No. 1, 2',3'-dideoxy-3'-fluorothymidine]
anti-adenovirus activity (in words) (adenovirus serotype 5): particularly high anti-adenovirus activity
anti-adenovirus activity (in words) (adenovirus of serotype 8; serotype 8): particularly high anti-adenovirus activity
IC50 (adenovirus of serotype 8; unidentified adenovirus, NCTC-2544, adenovirus serotype 8, EP cells, plaque assay): 0.005 µM
CC50 at 72 h [1]: 38 µM
